Series [1] is described as follows: Encapsulation efficiency of RNA, QUANT-IT RIBOGREEN RNA assay. Type of series: physicochemical. The settings on record: Table 1A formulations. The source says: The efficiency of encapsulation of a therapeutic and/or prophylactic describes the amount of therapeutic and/or prophylactic that is encapsulated or otherwise associated with a nanoparticle composition after preparation, relative to the initial amount provided. The encapsulation efficiency is desirably high (e.g., close to 100%). The encapsulation efficiency may be measured, for example, by comparing the amount of therapeutic and/or prophylactic in a solution containing the nanoparticle composition before and after breaking up the nanoparticle composition with one or more organic solvents or detergents. Fluorescence may be used to measure the amount of free therapeutic and/or prophylactic (e.g., RNA) in a solution. For the nanoparticle compositions described herein, the encapsulation efficiency of a therapeutic and/or prophylactic may be at least 50%, for example 50%, 55%, 60%, 65%, 70%, 75%, 80%, 85%, 90%, 91%, 92%, 93%, 94%, 95%, 96%, 97%, 98%, 99%, or 100%. In some embodiments, the encapsulation efficiency may be at least 80%. In certain embodiments, the encapsulation efficiency may be at least 90%.
For nanoparticle compositions including an RNA, a QUANT-IT™ RIBOGREEN® RNA assay (Invitrogen Corporation Carlsbad, Calif.) can be used to evaluate the encapsulation of an RNA by the nanoparticle composition. The samples are diluted to a concentration of approximately 5 μg/mL in a TE buffer solution (10 mM Tris-HCl, 1 mM EDTA, pH 7.5). 50 μL of the diluted samples are transferred to a polystyrene 96 well plate and either 50 μL of TE buffer or 50 μL of a 2% Triton X-100 solution is added to the wells. The plate is incubated at a temperature of 37° C. for 15 minutes. The RIBOGREEN® reagent is diluted 1:100 in TE buffer, and 100 μL of this solution is added to each well. The fluorescence intensity can be measured using a fluorescence plate reader (Wallac Victor 1420 Multilablel Counter; Perkin Elmer, Waltham, Mass.) at an excitation wavelength of, for example, about 480 nm and an emission wavelength of, for example, about 520 nm. The fluorescence values of the reagent blank are subtracted from that of each of the samples and the percentage of free RNA is determined by dividing the fluorescence intensity of the intact sample (without addition of Triton X-100) by the fluorescence value of the disrupted sample (caused by the addition of Triton X-100).

The nature of series [2]: Residual lipid level in liver of rats (UPLC-MS quantification). Type of series: in vivo. The settings on record: rat.
Series [3] in a line: Particle size, polydispersity index (and zeta potential) of nanoparticle compositions, Zetasizer Nano ZS. Type of series: physicochemical. As to conditions: Table 1A formulations. The method, boiled down:
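Particle size and polydispersity index were measured by dynamic light scattering on a Zetasizer Nano ZS in 1×PBS. Zeta potential was measured in 15 mM PBS.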

The nature of series [4]: Residual lipid level in spleen of rats (UPLC-MS quantification). Type of series: in vivo. As to conditions: 0.2 mg/kg, rat, intravenous, 0.2 mpk.
The next series concerns hEPO mRNA expression. Briefly: hEPO expression after intravenous administration to mice. Type of series: in vivo. As to conditions: i.v., 0.5 mpk, 3, 6 and 24 hours. The procedure: Sample formulations of nanoparticle compositions including different lipids are generally first evaluated according to Luc expression in vivo. The activity of several such compositions was further evaluated using an mRNA encoding hEPO. Nanoparticle compositions including Compounds 6, 18, 25, 30, 108-112, 60, and 122, or MC3 were prepared according to Example 2.
(§1) The expression of hEPO and cytokine induction in mice intravenously administered a nanoparticle composition at a dose of 0.5 mpk were measured at 3, 6, and 24 hours. […] The expression of hEPO in mice intramuscularly administered a nanoparticle composition from Table 1B at a dose of 0.01 mpk were measured at 3, 6, and 24 hours. […] (see also FIG. 9.)

Another series concerns IL-6. Kind of series: Cytokine induction (IL-6) after intravenous administration to mice. Type of series: in vivo. As to conditions: i.v., 0.5 mpk, 6 hours (Table 7).
Excerpt: The introduction of foreign material into a mammalian body induces an innate immune response that promotes cytokine production. Such immune responses to, for example, nanoparticle compositions including therapeutic and/or prophylactics, are undesirable. The induction of certain cytokines is thus measured to evaluate the […] of nanoparticle compositions. The concentrations of various cytokines in mice upon intravenous administration of nanoparticle compositions presented in Table 1A at a dosage of 0.5 mpk was measured at 6 hours. The standard MC3 formulation and a PBS control were also tested. As is evident in Table 7, IL-6 induction was highest for compositions including Compounds 1, 3, 9, 19, and 26, while IP-10 induction was highest for compositions including Compounds 3, 4, 7, 20, and 26. IL-6 induction was lowest for compositions including Compounds 4, 11, 12, and 28. IP-10 induction was lowest for compositions including Compounds 10, 11, 12, 13, 15, 17, and 18.
as §1

In the case of `CCCCCCCCCOC(=O)CCCCCCCN(CCO)CCCCCCCC(=O)OC(CCCCCCCC)CCCCCCCC` [Compound 18, Heptadecan-9-yl 8-((2-hydroxyethyl)(8-(nonyloxy)-8-oxooctyl)amino)octanoate], the “EE (%)” value in series [1] is 97.50%. Moreover, the concentration at 0.25 h came to 5370 ng/g in series [2] (liver, 0.2 mg/kg, intravenous, 0.2 mpk, 0.25 h) and 1230 ng/g in series [4] (0.25 h). Moreover, the concentration at 0.5 h was 6020 ng/g in series [2] (liver, 0.2 mg/kg, intravenous, 0.2 mpk, 0.5 h) and 2020 ng/g in series [4] (0.5 h). The concentration at 1 h came out at 6050 ng/g in series [2] (liver, 0.2 mg/kg, intravenous, 0.2 mpk, 1 h) and 3210 ng/g in series [4] (1 h). Moreover, the concentration at 2 h in series [2] (liver, 0.2 mg/kg, intravenous, 0.2 mpk, 2 h) is 2040 ng/g; in series [4] (2 h), 3070 ng/g. Also, the concentration at 4 h in series [2] (liver, 0.2 mg/kg, intravenous, 0.2 mpk, 4 h) stood at 839 ng/g; in series [4] (4 h), 3770 ng/g. For the same compound, the concentration at 8 h turned out to be 296 ng/g in series [2] (liver, 0.2 mg/kg, intravenous, 0.2 mpk, 8 h) and 1340 ng/g in series [4] (8 h). For the same compound, the concentration at 24 h is 5 ng/g in series [2] (liver, 0.2 mg/kg, intravenous, 0.2 mpk, 24 h) and 271 ng/g in series [4] (24 h). The concentration at 48 h in series [2] (liver, 0.2 mg/kg, intravenous, 0.2 mpk, 48 h, read-out: Lipid level in liver) came to 5370 ng/g; in series [4] (48 h, read-out: Lipid level in spleen), 92 ng/g. In addition, the “% Lipid Remaining in liver, 48 h 2 mpk” value in series [2] (2 mpk, 48 h, assuming 300 g rat and 15 g liver) is on record as 0.018%. Further, in series [3], the PDI stood at 0.042. For the same compound, the “hEPO concentrations versus MC3 formulations at each time point” value with hEPO mRNA expression is listed as “higher hEPO concentrations than MC3 formulations”.

As to `CCCCCCCCCOC(=O)CCCCCCCN(CCO)CCCCCCCCCC(=O)OC(CCCCCCCC)CCCCCCCC` [Compound 23, Heptadecan-9-yl 10-((2-hydroxyethyl)(8-(nonyloxy)-8-oxooctyl)amino) decanoate], the IL-6 in the series on IL-6 amounted to 94.00.

Values taken from US9868692B2, “Compounds and compositions for intracellular delivery of therapeutic agents” (MODERNATX, Inc., priority 2015, dated 2018).
